Source: ChEMBL document CHEMBL1152560, “Substituted 2-arylbenzothiazoles as kinase inhibitors: hit-to-lead optimization” (Bioorg Med Chem, 2009)

Experiments:
[1] = target: T1, Serine/threonine-protein kinase TBK1 (Homo sapiens) (UniProt Q9UHD2); test: Residual activity of TBK1 at 10 uM by microplate scintillation counting
T1 sequence (whole entry): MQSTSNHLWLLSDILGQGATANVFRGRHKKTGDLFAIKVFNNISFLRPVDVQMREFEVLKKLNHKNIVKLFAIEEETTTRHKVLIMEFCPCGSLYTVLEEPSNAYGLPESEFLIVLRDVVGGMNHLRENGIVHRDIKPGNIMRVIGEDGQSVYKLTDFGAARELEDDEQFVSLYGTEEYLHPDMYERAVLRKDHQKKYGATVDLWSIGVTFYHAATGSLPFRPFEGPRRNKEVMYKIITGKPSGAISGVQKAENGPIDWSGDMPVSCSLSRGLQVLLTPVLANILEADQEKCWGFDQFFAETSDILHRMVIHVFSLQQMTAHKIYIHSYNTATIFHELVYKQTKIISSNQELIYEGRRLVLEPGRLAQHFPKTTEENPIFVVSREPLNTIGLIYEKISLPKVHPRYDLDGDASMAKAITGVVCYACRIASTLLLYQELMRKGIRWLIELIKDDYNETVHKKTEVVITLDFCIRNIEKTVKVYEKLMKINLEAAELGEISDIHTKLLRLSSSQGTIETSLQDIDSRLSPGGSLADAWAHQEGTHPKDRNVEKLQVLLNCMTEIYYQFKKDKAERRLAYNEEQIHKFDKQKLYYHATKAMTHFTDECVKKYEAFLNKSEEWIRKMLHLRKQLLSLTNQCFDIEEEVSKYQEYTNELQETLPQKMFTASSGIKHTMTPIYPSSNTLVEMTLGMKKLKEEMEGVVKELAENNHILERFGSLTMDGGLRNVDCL

[2] = target: Tyrosine-protein kinase Blk (Homo sapiens) (UniProt P51451); test: Residual activity of BLK at 1 uM by microplate scintillation counting
[3] = system: T2, Dual specificity mitogen-activated protein kinase kinase 6 (Homo sapiens), P52564 [S207D,T211D]; test: Residual activity of MKK6 S207D/T211D mutant at 1 uM by microplate scintillation counting
T2 sequence (whole entry): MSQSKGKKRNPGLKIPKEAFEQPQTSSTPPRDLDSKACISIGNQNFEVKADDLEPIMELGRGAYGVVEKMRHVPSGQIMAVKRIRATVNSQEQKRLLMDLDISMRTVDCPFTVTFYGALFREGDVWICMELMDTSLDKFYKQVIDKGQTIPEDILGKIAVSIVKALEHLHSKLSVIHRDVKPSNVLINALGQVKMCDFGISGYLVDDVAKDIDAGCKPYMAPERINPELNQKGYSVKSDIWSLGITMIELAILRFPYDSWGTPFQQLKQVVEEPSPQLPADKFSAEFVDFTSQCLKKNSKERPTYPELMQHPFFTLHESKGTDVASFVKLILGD

[4] = target: Serine/threonine-protein kinase pim-1 (Homo sapiens) (UniProt P11309); test: Residual activity of PIM1 at 10 uM by microplate scintillation counting
[5] = target: T3, Serine/threonine-protein kinase Sgk2 (Homo sapiens) (UniProt Q9HBY8); test: Residual activity of SGK2 at 0.1 uM by microplate scintillation counting
T3 sequence (whole entry): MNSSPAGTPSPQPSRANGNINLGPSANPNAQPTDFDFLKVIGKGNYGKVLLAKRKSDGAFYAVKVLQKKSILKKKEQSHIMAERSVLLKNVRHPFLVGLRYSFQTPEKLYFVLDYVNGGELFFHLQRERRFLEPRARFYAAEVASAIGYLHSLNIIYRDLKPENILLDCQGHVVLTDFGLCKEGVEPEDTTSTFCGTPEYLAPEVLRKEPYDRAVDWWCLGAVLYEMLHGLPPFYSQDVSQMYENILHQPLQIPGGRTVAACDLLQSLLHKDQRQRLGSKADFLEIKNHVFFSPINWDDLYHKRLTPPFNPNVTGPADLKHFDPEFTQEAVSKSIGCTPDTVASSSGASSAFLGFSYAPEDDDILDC

[6] = target: T4, Tyrosine-protein kinase Tec (Homo sapiens) (UniProt P42680); test: Residual activity of TEC at 0.1 uM by microplate scintillation counting
T4 sequence (whole entry): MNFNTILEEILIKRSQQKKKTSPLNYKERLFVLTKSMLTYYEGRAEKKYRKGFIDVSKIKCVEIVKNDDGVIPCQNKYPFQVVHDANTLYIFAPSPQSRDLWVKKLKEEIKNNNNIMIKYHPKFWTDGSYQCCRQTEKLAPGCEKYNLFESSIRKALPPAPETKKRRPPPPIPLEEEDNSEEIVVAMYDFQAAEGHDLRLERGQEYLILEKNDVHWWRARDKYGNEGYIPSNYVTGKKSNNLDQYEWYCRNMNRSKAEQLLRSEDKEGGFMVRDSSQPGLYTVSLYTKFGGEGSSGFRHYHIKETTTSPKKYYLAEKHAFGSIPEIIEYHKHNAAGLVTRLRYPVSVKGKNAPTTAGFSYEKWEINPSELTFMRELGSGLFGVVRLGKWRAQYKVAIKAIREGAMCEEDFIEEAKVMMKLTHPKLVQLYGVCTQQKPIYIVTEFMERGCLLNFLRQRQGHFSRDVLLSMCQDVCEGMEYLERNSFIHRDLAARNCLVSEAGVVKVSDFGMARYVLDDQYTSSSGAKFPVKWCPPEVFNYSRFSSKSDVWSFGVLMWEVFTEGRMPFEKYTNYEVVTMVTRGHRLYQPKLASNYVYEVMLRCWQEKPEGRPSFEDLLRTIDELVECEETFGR

[7] = target: Ribosomal protein S6 kinase alpha-6 (Homo sapiens) (UniProt Q9UK32); test: Residual activity of RPS6KA6 at 1 uM by microplate scintillation counting
[8] = target: T5, TGF-beta receptor type-1 (Homo sapiens) (UniProt P36897); test: Residual activity of TGFB-R1 at 10 uM by microplate scintillation counting
T5 sequence (whole entry): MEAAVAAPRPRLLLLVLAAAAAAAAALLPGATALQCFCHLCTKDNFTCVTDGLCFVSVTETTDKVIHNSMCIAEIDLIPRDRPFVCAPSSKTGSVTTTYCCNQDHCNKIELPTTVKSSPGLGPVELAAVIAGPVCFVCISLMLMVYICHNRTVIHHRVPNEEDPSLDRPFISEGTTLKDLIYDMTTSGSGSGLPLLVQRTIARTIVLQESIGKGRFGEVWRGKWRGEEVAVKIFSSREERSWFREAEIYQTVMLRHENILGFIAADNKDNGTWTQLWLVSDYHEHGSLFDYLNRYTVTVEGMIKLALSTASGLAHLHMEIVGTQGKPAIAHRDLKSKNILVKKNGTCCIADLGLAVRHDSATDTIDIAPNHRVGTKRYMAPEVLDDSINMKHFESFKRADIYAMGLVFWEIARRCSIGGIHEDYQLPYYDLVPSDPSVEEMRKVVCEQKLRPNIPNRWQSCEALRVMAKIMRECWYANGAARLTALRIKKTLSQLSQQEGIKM

Ribosomal protein S6 kinase alpha-6 (Homo sapiens), sequence (Q9UK32 whole entry): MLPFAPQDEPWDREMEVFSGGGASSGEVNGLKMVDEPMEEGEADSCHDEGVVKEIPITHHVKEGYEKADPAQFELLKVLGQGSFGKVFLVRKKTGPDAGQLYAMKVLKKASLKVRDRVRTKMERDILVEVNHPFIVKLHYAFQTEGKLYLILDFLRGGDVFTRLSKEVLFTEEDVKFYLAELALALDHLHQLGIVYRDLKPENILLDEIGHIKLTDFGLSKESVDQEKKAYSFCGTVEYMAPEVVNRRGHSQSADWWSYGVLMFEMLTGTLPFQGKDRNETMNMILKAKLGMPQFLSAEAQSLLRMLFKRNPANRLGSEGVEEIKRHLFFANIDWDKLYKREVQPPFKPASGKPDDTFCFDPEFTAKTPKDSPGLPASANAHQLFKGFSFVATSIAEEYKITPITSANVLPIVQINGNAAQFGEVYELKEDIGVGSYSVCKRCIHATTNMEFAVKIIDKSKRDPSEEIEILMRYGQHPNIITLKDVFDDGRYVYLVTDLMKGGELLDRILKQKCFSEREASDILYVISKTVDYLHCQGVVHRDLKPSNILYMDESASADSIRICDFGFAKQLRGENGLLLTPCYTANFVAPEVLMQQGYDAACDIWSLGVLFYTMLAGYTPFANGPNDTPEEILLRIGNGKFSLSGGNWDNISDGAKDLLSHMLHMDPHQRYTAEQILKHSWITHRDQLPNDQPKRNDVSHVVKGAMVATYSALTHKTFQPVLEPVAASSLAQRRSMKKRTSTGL
Serine/threonine-protein kinase pim-1 (Homo sapiens), sequence (P11309 whole entry, looked up): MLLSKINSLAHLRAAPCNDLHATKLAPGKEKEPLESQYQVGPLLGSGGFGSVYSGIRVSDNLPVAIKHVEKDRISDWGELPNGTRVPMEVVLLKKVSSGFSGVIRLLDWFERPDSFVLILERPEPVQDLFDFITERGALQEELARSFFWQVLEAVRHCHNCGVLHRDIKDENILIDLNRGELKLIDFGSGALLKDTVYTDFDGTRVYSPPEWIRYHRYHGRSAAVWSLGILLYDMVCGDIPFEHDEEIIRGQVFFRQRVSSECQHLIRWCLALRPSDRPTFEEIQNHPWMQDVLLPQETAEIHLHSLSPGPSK
Tyrosine-protein kinase Blk (Homo sapiens), sequence (P51451 2-505 limits assumed): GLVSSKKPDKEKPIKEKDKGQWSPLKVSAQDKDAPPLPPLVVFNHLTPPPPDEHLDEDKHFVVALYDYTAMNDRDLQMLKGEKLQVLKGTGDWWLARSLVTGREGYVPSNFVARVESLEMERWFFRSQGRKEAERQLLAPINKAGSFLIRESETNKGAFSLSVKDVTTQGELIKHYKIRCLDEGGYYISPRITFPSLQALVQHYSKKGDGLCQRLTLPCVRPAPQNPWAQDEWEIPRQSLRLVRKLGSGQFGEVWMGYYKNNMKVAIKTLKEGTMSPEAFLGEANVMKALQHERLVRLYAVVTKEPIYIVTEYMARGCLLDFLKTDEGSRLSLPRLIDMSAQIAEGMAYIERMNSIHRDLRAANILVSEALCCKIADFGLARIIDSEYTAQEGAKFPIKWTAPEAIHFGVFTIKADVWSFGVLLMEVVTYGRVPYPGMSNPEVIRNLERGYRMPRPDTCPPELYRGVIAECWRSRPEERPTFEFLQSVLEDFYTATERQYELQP

| residual activity [1] [%] | residual activity [2] [%] | residual activity [3] [%] | residual activity [4] [%] | residual activity [5] [%] | residual activity [6] [%] | residual activity [7] [%] | residual activity [8] [%] | Compound |
| --- | --- | --- | --- | --- | --- | --- | --- | --- |
| 143 | 64 | 100 | 74 | 94 | 98 | 95 | 100 | COc1cc2c(Oc3ccc(-c4nc5ccccc5s4)cc3)ncnc2cc1OCCCN1CCCC1 |
| 171 | 63 | 84 | 124 | 93 | 105 | 101 | 94 | COc1cc2c(Oc3ccc(-c4nc5ccccc5s4)cc3)ncnc2cc1OCCCN1CCN(C)CC1 |
| 141 | 58 | 103 | 97 | 95 | 96 | 97 | 94 | COc1cc2c(Oc3ccc(-c4nc5ccccc5s4)cc3F)ncnc2cc1OCCCN1CCN(C)CC1 |
